Experiment [1] deals with NCI-H295R. Nature of the experiment: ExcessHSA synergy score with TAK-243; higher = less synergy (negative = synergistic). Particulars: combined with: TAK-243 (MLN-7243) matrix, 9-point 1:2 dilution. As to the method: (§1)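 Each drug was tested at 9 points with 1:2 dilution; viability was read by CellTiter-Glo as in the single-agent screen. Synergy is scored as ExcessHSA (sum of excess over highest single agent; negative = synergy) and the Beta interaction parameter (<1 synergy).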

For experiment [2], the system named is CU-ACC1. Described as above. Particulars: combined with: TAK-243 (MLN-7243) matrix, 9-point 1:2 dilution. As to the method: as §1

SMILES strings stand for the structures. Structures can show the parent of a compound that is named as a salt.

As for `CSC[C@H]1CN(Cc2c[nH]c3c(N)ncnc23)C[C@@H]1O` [MT-DADMe-ImmA], the “ExcessHSA synergy score with TAK-243” value is 422 in experiment [1] and -323 in experiment [2].

Consider `CNC(=O)Nc1ccc2c(c1)CC[C@@]21OC(=O)N(CC(=O)N(Cc2ccc(F)cc2)[C@@H](C)C(F)(F)F)C1=O` [A-485], for which the “ExcessHSA synergy score with TAK-243” value in experiment [1] was found to be 334; in experiment [2] it was 305.

`Nc1cccc2c1CN(C1CCC(=O)NC1=O)C2=O` (configuration not stated) [Lenalidomide]: the “ExcessHSA synergy score with TAK-243” value in experiment [1] worked out at 364; in experiment [2] it was 337.

Consider `CN1CCN(c2ccc(Nc3ncc4cc5n(c4n3)C3(CCCCC3)CNC5=O)nc2)CC1` [Trilaciclib (hydrochloride)], for which the “ExcessHSA synergy score with TAK-243” value was 125 in experiment [1] and -171 in experiment [2].

As for `CNC(=O)c1ccc(Nc2ncc(C(F)(F)F)c(NCc3nccnc3N(C)S(C)(=O)=O)n2)cc1` [Defactinib], the “ExcessHSA synergy score with TAK-243” value in experiment [1] stood at 245; in experiment [2] it was 223.

Turning to `CC(C)[C@@H](CS(=O)(=O)C(C)C)N1C(=O)[C@@](C)(CC(=O)O)C[C@H](c2cccc(Cl)c2)[C@H]1c1ccc(Cl)cc1` [AMG 232], the “ExcessHSA synergy score with TAK-243” value in experiment [1] is 236; in experiment [2] it was -130.

For the compound `Nc1nc(OCc2ccccc2)c2nc[nH]c2n1` [O6-Benzylguanine], the entries for the “ExcessHSA synergy score with TAK-243” value in experiment [1] and in experiment [2] were 45.7 and -248, respectively.

Take `COc1c(OCCCN2CCOCC2)ccc2c3n(c(=NC(=O)c4cnc(N)nc4)nc12)CCN3` [Copanlisib]: the “ExcessHSA synergy score with TAK-243” value amounted to 87 in experiment [1] and 70.4 in experiment [2].

In the case of `O=C1CC[C@H](N2Cc3c(OCc4ccc(CN5CCOCC5)cc4)cccc3C2=O)C(=O)N1` [Iberdomide], the “ExcessHSA synergy score with TAK-243” value in experiment [1] worked out at 1110; in experiment [2] it was 393.

`CC(C)C[C@H](NC(=O)[C@H](CCc1ccccc1)NC(=O)CN1CCOCC1)C(=O)N[C@@H](Cc1ccccc1)C(=O)N[C@@H](CC(C)C)C(=O)[C@@]1(C)CO1` [Carfilzomib]: the “ExcessHSA synergy score with TAK-243” value in experiment [1] was -675; in experiment [2], -949.

Consider `CN(C)C/C=C/C(=O)Nc1ccc(C(=O)Nc2cccc(Nc3ncc(Cl)c(-c4c[nH]c5ccccc45)n3)c2)cc1` [THZ1], for which the “ExcessHSA synergy score with TAK-243” value was -128 in experiment [1] and -55.8 in experiment [2].

With `CC1(C)CCC(CN2CCN(c3ccc(C(=O)NS(=O)(=O)c4ccc(NCC5CCOCC5)c([N+](=O)[O-])c4)c(Oc4cnc5[nH]ccc5c4)c3)CC2)=C(c2ccc(Cl)cc2)C1` [Venetoclax (ABT-199)], the “ExcessHSA synergy score with TAK-243” value was -424 in experiment [1] and -249 in experiment [2].

On to `CCS(=O)(=O)c1cc2cc(C[C@](O)(CC(C)(C)c3ccc(F)cc3C(N)=O)C(F)(F)F)[nH]c2cn1`, for which the “ExcessHSA synergy score with TAK-243” value in experiment [1] worked out at 885; in experiment [2] it was 653.

As for `CO[C@H]1CN(C)C(=O)c2cc(NC(=O)NC(C)C)ccc2OC[C@H](C)N(Cc2ccc(-c3ccccn3)cc2)C[C@@H]1C` [BD98], the “ExcessHSA synergy score with TAK-243” value was -760 in experiment [1] and -213 in experiment [2].

`C/C=C(/C)C(=O)O[C@H]1C(C)=C2[C@H]([C@@H]1OC(=O)CCCCCCC)[C@@](C)(OC(C)=O)C[C@H](OC(=O)CCC)[C@@]1(O)[C@H]2OC(=O)[C@@]1(C)O` [Thapsigargin]: the “ExcessHSA synergy score with TAK-243” value was -409 in experiment [1] and -443 in experiment [2].

As for `CC(C)Nc1cc(-c2c[nH]c(C(=O)N[C@H](CO)c3cccc(Cl)c3)c2)c(Cl)cn1` [Ulixertinib], the “ExcessHSA synergy score with TAK-243” value in experiment [1] is -674; in experiment [2], -564.

`C[C@H]1N=C(N(C)C)N=C(N)N1` [Imeglimin]: the entries for the “ExcessHSA synergy score with TAK-243” value in experiment [1] and in experiment [2] were 50.3 and -159, respectively.

For `CS(=O)(=O)c1ccc(C(=O)Nc2ccc(Cl)c(-c3ccccn3)c2)c(Cl)c1` [Vismodegib], the “ExcessHSA synergy score with TAK-243” value in experiment [1] was -5.69; in experiment [2] it was -206.

For the compound `COc1cc([C@@H](CC(=O)O)c2ccc(C)c(CN3C[C@@H](C)Oc4ccccc4S3(=O)=O)c2)cc2nnn(C)c12` [KI-696], the “ExcessHSA synergy score with TAK-243” value in experiment [1] was found to be 351; in experiment [2], 533.

On to `CCc1cnn2c(NCc3ccc[n+]([O-])c3)cc(N3CCCC[C@H]3CCO)nc12` [Dinaciclib], for which the “ExcessHSA synergy score with TAK-243” value in experiment [1] turned out to be 170; in experiment [2] it was 86.7.

With `CC1(C)CCC(c2ccc(Cl)cc2)=C(CN2CCN(c3ccc(C(=O)NS(=O)(=O)c4ccc(N[C@H](CCN5CCOCC5)CSc5ccccc5)c(S(=O)(=O)C(F)(F)F)c4)cc3)CC2)C1` [Navitoclax], the “ExcessHSA synergy score with TAK-243” value was -505 in experiment [1] and -563 in experiment [2].

As to `CCCCCCCCc1ccc(CCC(N)(CO)CO)cc1` [Fingolimod hydrochloride], the “ExcessHSA synergy score with TAK-243” value in experiment [1] was 127; in experiment [2] it was -48.2.

For the compound `Nc1nc(NC2CC2)cc(-c2cccc(Cl)c2Cl)n1` [TH588], the “ExcessHSA synergy score with TAK-243” value was -172 in experiment [1] and -251 in experiment [2].

As for `O=c1sn(-c2cccc3ccccc23)c(=O)n1Cc1ccccc1` [Tideglusib], the “ExcessHSA synergy score with TAK-243” value is -74.2 in experiment [1] and -108 in experiment [2].

On to `C=CCNc1nc(N)c(C(=O)c2ccc(F)s2)s1` [TT-10], for which the “ExcessHSA synergy score with TAK-243” value in experiment [1] worked out at 922; in experiment [2], 584.

Take `C[C@@H]1C[C@H]2[C@@H]3CCC4=CC(=O)C=C[C@]4(C)[C@@]3(F)[C@@H](O)C[C@]2(C)[C@@]1(O)C(=O)CO` [Dexamethasone]: the “ExcessHSA synergy score with TAK-243” value was 743 in experiment [1] and 420 in experiment [2].

These data come from the supplement of paper PMC10949913.
